Here are results for two molecules from US20050032124A1, “Identification of genotype-selective agents for treating Huntington's disease” (priority 2003, published 2005).

Common to all, as to format: cell-based, human
Assay [1] concerns BJ-TERT/LT/ST/RAS^V12 tumorigenic cells. Nature of the assay: Calcein AM viability assay, dilution-series retest. How it is done: Described here is work carried out to identify compounds with increased potency or activity in the presence of hTERT, LT, ST, E6, E7 or RAS^V12. […] The primary screen tested (in quadruplicate) the effect of treating tumorigenic BJ-TERT/LT/ST/RAS^V12 engineered tumorigenic cells with each compound for 48 hours at a concentration of 4 μg/mL, corresponding to 10 μM for a compound with a molecular weight of 400, which is the approximate median molecular weight of the libraries. Cell viability was measured using the dye calcein acetoxymethyl ester (calcein AM) (Wang et al., 1993, Hum. Immunol. 3 7, 264-270), which is a non-fluorescent compound that freely diffuses into cells. In live cells, calcein AM is cleaved by intracellular esterases, forming the anionic fluorescent derivative calcein, which cannot diffuse out of live cells. […] The IC50 value (concentration required to inhibit 50% of the calcein AM signal) was calculated for each compound in each cell line (Table 1).
(§1) Calcein acetoxylmethyl ester (AM) is a cell membrane-permeable, non-fluorescent compound that is cleaved by intracellular esterases to form the anionic, cell-impermeable, fluorescent compound calcein. Viable cells are stained by calcein because of the presence of intracellular esterases and because the intact plasma membrane prevents fluorescent calcein from leaking out of cells (Wang et al., 1993, supra). Cells were seeded in 384-well plates using a Zymark Sciclone ALH, treated with each compound in triplicate at 4 μg/mL in the primary screen for two days, washed with phosphate-buffered saline on a Packard Minitrak with a 384-well washer and incubated for four hours with 0.7 μg/mL calcein (Molecular Probes). Total fluorescence intensity in each well was recorded on a Packard Fusion platereader, and converted to a percent inhibition of signal by subtracting the instrument background and dividing by the average signal obtained when cells were not treated with any compound.
(§2) Replica daughter plates were prepared with a Zymark Sciclone ALH and integrated Twister II by diluting stock plates 50 fold in medium lacking serum and pen/strep to obtain a compound concentration in daughter plates of 80 μg/ml with 2% DMSO. Assay plates were prepared by seeding cells in black, clear bottom 384-well plates in columns 1-23 (6000 cells/well in 57 μl) using a syringe bulk dispenser. Columns 3-22 were treated with compounds from a daughter library plate by transferring 3 μl from the daughter library plate using 384-position fixed cannula array. The final compound concentrations in assay plates were thus 4 μg/ml. The assay plates were incubated for 48 hours at 37° C. in humidified incubator containing 5% CO2. Plate processing for the calcein AM viability assay was performed using an integrated Minitrak/Sidetrak robotic system from Packard Bioscience (Perkin Elmer). Assay plates were washed with phosphate buffered saline, and 20 μl of calcein AM (0.7 μg/ml) per well was added. Plates were incubated at room temperature for 4 hours. Fluorescence intensity was determined using a Fusion platereader with filters centered on an excitation of 485 nm and an emission of 535 nm.
(§3) Compounds to be retested were purchased from manufacturers. Stocks were prepared in DMSO at a concentration of 1 mg/ml in 384-well polypropylene plates with a 16-point, two-fold dilution dose curve of each compound in a column, in duplicates. Column 1-2 and 23-24 were left empty for controls. Daughter retest plates were prepared from stock retest plate by diluting 66.6 fold in DMEM in 384-well deep-deep well plates (4.5 μl transfer into 300 μl). Cells were seeded at a density of 6000 per well in 40 μl, and 20 μl was added from a daughter retest plate. The plates were incubated for two days at 37° C. with 5% CO2.

Assay [2] deals with TIP5/TERT cells. Description: Calcein AM viability assay, dilution-series retest. Conditions: TIP5-TERT cells; 16-point two-fold dilution; two days.
Source text: (§4) In a third series, cell lines derived from independently prepared human TIP5 foreskin fibroblasts created by introducing cDNA constructs encoding hTERT, LT, ST and RASV12 (Lessnick et al., 2002, Cancer Cell 1, 393-401) were used. These cell lines were called, respectively: TIP5/TERT, TIP5/TERT/LT, TIP5/TERT/LT/ST, and TIP5/TERT/LT/ST/RAS^V12. In a fourth series, cell lines derived from TIP5 fibroblasts created by introducing cDNA constructs encoding hTERT, E6, E7, ST and RAS^V12 were used. These cell lines were named, respectively: TIP5/TERT/E6, TIP5/TERT/E6/E7, TIP5/TERT/E6/E7/ST, and TIP5/TERT/E6/E7/ST/RAS^V12. In this series, HPV E6 and E7, which inactivate p53 and RB, respectively, serve a similar function as LT in the previous series. However, by using HPV E6 and E7, Applicants were able to observe the effects of inactivating, separately and independently, p53 and RB. Results of a large-scale screen for compounds that display selective killing of these engineered tumorigenic cell lines are described in the examples that follow.
as §1, §2, §3
(§5) Mean RFU (relative fluorescence units) for untreated cells was calculated by averaging columns 1, 2, and 23 (wells with cells but lacking compounds). […]

For assay [3], the system named is TIP5/TERT/E6/E7 cells. Nature of the assay: Calcein AM viability assay, dilution-series retest. Conditions: TIP5-TERT/E6E7 cells; 16-point two-fold dilution; two days.
Source text: as §4, §1, §2, §3, §5

The subject of assay [4] is TIP5/TERT/LT cells. Nature of the assay: Calcein AM viability assay, dilution-series retest. Conditions: TIP5 TERT/LT cells; 16-point two-fold dilution; two days.
Source text: as §4, §1, §2, §3, §5

In assay [5] the test system is TIP5/TERT/LT/ST/RAS^V12 cells. Description: Calcein AM viability assay, dilution-series retest. Conditions: TIP5 TERT/LT/ST/Ras^V12 cells; 16-point two-fold dilution; two days.
Source text: as §4, §1, §2, §3, §5

Assay [6] relates to TIP5/TERT/E6/E7/ST/RAS^V12 cells. Nature of the assay: Calcein AM viability assay, dilution-series retest. Conditions: TIP5-TERT/E6E7/ST/Ras^V12 cells; 16-point two-fold dilution; two days.
Source text: as §4, §1, §2, §3, §5

Assay [7] deals with TIP5/TERT/E6/E7/ST cells. Nature of the assay: Calcein AM viability assay, dilution-series retest. Conditions: TIP5-TERT/E6E7/ST cells; 16-point two-fold dilution; two days.
Source text: as §4, §1, §2, §3, §5

Assay [8] concerns BJ primary cells. Nature of the assay: Calcein AM viability assay, dilution-series retest. Conditions: BJ cells; 16-point two-fold dilution; two days.
Source text: (§6) Described here is work carried out to identify compounds with increased potency or activity in the presence of hTERT, LT, ST, E6, E7 or RAS^V12. Engineered cell lines with these genetic elements were used to screen […] compounds, including 20,000 compounds from a combinatorial library, 1,990 compounds from the National Cancer Institute diversity collection, and 1,540 biologically active known compounds that were selected and purchased by Applicant and formatted into a screenable collection. The primary screen tested (in quadruplicate) the effect of treating tumorigenic BJ-TERT/LT/ST/RAS^V12 engineered tumorigenic cells with each compound for 48 hours at a concentration of 4 μg/mL, corresponding to 10 μM for a compound with a molecular weight of 400, which is the approximate median molecular weight of the libraries. Cell viability was measured using the dye calcein acetoxymethyl ester (calcein AM) (Wang et al., 1993, Hum. Immunol. 3 7, 264-270), which is a non-fluorescent compound that freely diffuses into cells. In live cells, calcein AM is cleaved by intracellular esterases, forming the anionic fluorescent derivative calcein, which cannot diffuse out of live cells. […] The IC50 value (concentration required to inhibit 50% of the calcein AM signal) was calculated for each compound in each cell line (Table 1). […] Following is a more detailed analysis of these nine compounds.
as §1, §2
(§7) Compounds to be retested were purchased from manufacturers. Stocks were prepared in DMSO at a concentration of 1 mg/ml in 384-well polypropylene plates with a 16-point, two-fold dilution dose curve of each compound in a column, in duplicates. Column 1-2 and 23-24 were left empty for controls. […]

Assay [9] deals with BJ-TERT/LT/RAS^V12/ST cells. Description: Calcein AM viability assay, dilution-series retest. Conditions: BJ-TERT/LT/Ras^V12/ST cells; 16-point two-fold dilution; two days.
Source text: as §6, §1, §2, §7

Assay [10] concerns BJ-TERT/LT/ST cells. Nature of the assay: Calcein AM viability assay, dilution-series retest. Conditions: BJ-TERT/LT/ST cells; 16-point two-fold dilution; two days.
Source text: as §6, §1, §2, §7

Assay [11] concerns BJ primary cells. Description: Sensitization of primary cells by co-treatment, calcein AM viability staining. Conditions: BJ (or BJ-TERT) cells; simultaneous treatment. The source says:
(A-C) Western blot of lysates from BJ, BJ-TERT, BJ-TERT/LT/ST, BJ-TERT/LT/ST/RAS^V12, BJ-TERT/LT/RAS^V12 and BJ-TERT/LT/RAS^V12/ST cells with an antibody directed against topoisomerase II (A) or TOPI (B, C). In panel (C), cells were transfected with an siRNA directed against TOPI, lamic A/C or with a control double strand DNA duplex of the same length (TOPI dsDNA). In each case, the blot was probed with an antibody against eIF-4E to identify differences in the amount of protein loaded. The relative amount is quantitated below each band. […] Cell number was determined after transfection with an siRNA directed against TOPI and treatment with the indicated concentrations of camptothecin. (E) Okadaic acid, an inhibitor of PP2A and other cellular phosphatases, sensitizes primary human cells to camptothecin. BJ primary cells were treated simultaneously with the indicated concentrations of both camptothecin and okadaic acid and the effect on calcein AM viability staining was determined. […] BJ primary cells were treated with the indicated concentrations of okadaic acid and the expression level of TOPI was determined by western blot. The relative amount is quantitated below each band.
The compounds in group (iii) are camptothecin (CPT) and a novel compound from a combinatorial library, which Applicants have named erastin, for eradicator of RAS and ST-expressing cells (FIG. 2). Efficient CPT-induced and erastin-induced cell death requires the presence of both ST and RAS^V12 (FIGS. 3 and 4 and Table 1). Although CPT and erastin have a similar genetic basis of selectivity, they have distinct mechanisms of action. […] The phosphatase inhibitor okadaic acid was capable of sensitizing otherwise resistant BJ primary cells to CPT (FIG. 5E), possibly because okadaic acid upregulates TOPI (FIG. 5F).

For `Cc1c2ccccc2c(CSC(=N)N)c2ccccc12.Cl` [NSC146109], the “IC50, BJ-TERT/LT/ST/Ras^V12” value in assay [1] (BJ-TERT/LT/ST/Ras^V12 cells, 16-point two-fold dilution, two days) was 2.5 µg/mL. In addition, in assay [1] (IC50 in primary BJ cells divided by IC50 in BJ-TERT/LT/ST/RAS^V12 tumorigenic cells), the “Tumor Selectivity” value is reported as >4. Besides, the “IC50, TIP5-TERT” value in assay [2] is >5 µg/mL. Besides, the “IC50, TIP5-TERT/E6E7” value in assay [3] was 2.5 µg/mL. The “IC50, TIP5 TERT/LT” value in assay [4] is >5 µg/mL. Also, the “IC50, TIP5 TERT/LT/ST/Ras^V12” value in assay [5] is 2.5 µg/mL. The “IC50, TIP5-TERT/E6E7 ST/Ras^V12” value in [6] was 2.5 µg/mL. For the same molecule, the “IC50, TIP5-TERT/E6E7 ST” value in [7] was 2.5 µg/mL. Also, the “concentration required to achieve 50% inhibition of calcein AM staining (IC50), BJ” value in assay [8] is >5 µg/mL. Moreover, in assay [9], the “IC50, BJ-TERT/LT/Ras^V12/ST” value was 2.5 µg/mL. Besides, the “IC50, BJ-TERT/LT/ST” value in assay [10] is 2.5 µg/mL.
Take `COc1cc([C@@H]2c3cc4c(cc3[C@H](O)[C@H]3COC(=O)[C@H]23)OCO4)cc(OC)c1OC` [podophyllotoxin]: in [11], the “sensitization of cells to camptothecin” value is given as “does not sensitize BJ or BJ-TERT cells to CPT”.
